#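 Assay format: 96-well plates, 48-hour exposure. At the GI50, growth is halved. TGI: total growth inhibition.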 *1 amine or outer side, *2 acyl side, *3 side chain or, on linkers, in order; H or OH if unused. Where a SMILES comes first, the peptide text is derived from it. Bridges are numbered along the chain shown (N, C = ends). [ ]: non-standard residue; d: D form. The star is where a group is joined. X19 = O=C([C@H](N[*:1])c1ccc(O[C@H]2O[C@@H](CO)[C@@H](O)[C@@H](O)[C@H]2O[C@@H]2O[C@H](CO)[C@H](O)[C@H](O)[C@@H]2O)cc1)[*:2]; X18 = NC(=O)[C@@H](O[*:3])[C@H](N[*:1])C(=O)[*:2]; X20 = O=C([C@H](N[*:1])c1ccc(O)c(Cl)c1)[*:2]; d(aThr) = C[C@@H](O)[C@@H](N)C(=O)O; dHpg = N[C@@H](C(=O)O)c1ccc(O)cc1; X17 = CC(C)C/C=C/C=C/C(=O)*; dOrn = NCCC[C@@H](N)C(=O)O
# Columns and labels:
# Experiment in all cases: NCI tumour cell line growth inhibition, 48 h
# SNB-75 CNS = tested on: SNB-75 CNS
# SNB-19 CNS = tested on: SNB-19 CNS
# EKVX NSCLC = tested on: EKVX NSCLC
# U251 CNS = tested on: U251 CNS
# LOX IMVI melanoma = tested on: LOX IMVI melanoma
# SW-620 colon = tested on: SW-620 colon
# HCT-15 colon = tested on: HCT-15 colon
# MOLT-4 leukemia = tested on: MOLT-4 leukemia
# M14 melanoma = tested on: M14 melanoma
# NCI-H226 lung = tested on: NCI-H226 lung
SMILES,TGI (SNB-75 CNS),TGI (SNB-19 CNS),TGI (EKVX NSCLC),TGI (U251 CNS),TGI (LOX IMVI melanoma),TGI (SW-620 colon),TGI (HCT-15 colon),TGI (MOLT-4 leukemia),TGI (M14 melanoma),GI50 (SNB-19 CNS),GI50 (EKVX NSCLC),GI50 (U251 CNS),GI50 (LOX IMVI melanoma),GI50 (SW-620 colon),GI50 (HCT-15 colon),GI50 (MOLT-4 leukemia),GI50 (NCI-H226 lung),TGI (NCI-H226 lung),GI50 (M14 melanoma),GI50 (SNB-75 CNS)
O=C(O)CN(c1ccccc1)S(=O)(=O)c1ccc(Cl)cc1,> 100 µM,> 100 µM,> 100 µM,> 100 µM,> 100 µM,> 100 µM,> 100 µM,> 100 µM,> 100 µM,,,,,,,,,,,
O=C(Nc1ccc(Cl)cc1)c1cc2cc(F)ccc2cc1O,,> 100 µM,22.3 µM,6.54 µM,10.7 µM,> 100 µM,> 100 µM,16.4 µM,> 100 µM,2.2 µM,2.62 µM,1.1 µM,2.11 µM,2.49 µM,1.78 µM,3.24 µM,2.5 µM,7.99 µM,2.23 µM,
CC1(C)CCC2(C(=O)O)CC[C@]3(C)C(=CCC4C5(C)CC[C@H](OC6OC(C(=O)O)C(O)C(OC7OC(CO)C(O)C(O)C7O)C6OC6OC(CO)C(O)C(O)C6O)C(C)(C)C5CCC43C)C2C1 (some centres undefined),,> 100 µM,> 100 µM,89.4 µM,,> 100 µM,> 100 µM,> 100 µM,> 100 µM,> 100 µM,> 100 µM,32.3 µM,,> 100 µM,94.6 µM,86.3 µM,> 100 µM,> 100 µM,79.9 µM,
NC(=O)c1cc(Cl)ccc1NC(=O)c1ccccc1-c1ccccc1,3.2 µM,> 100 µM,,> 100 µM,43 µM,> 100 µM,> 100 µM,> 100 µM,3.96 µM,0.709 µM,,0.65 µM,0.806 µM,0.412 µM,0.55 µM,0.743 µM,18.4 µM,> 100 µM,0.427 µM,0.273 µM
O=C1NC(=O)C(=O)C(c2nc3ccccc3s2)C1=O,> 100 µM,> 100 µM,> 100 µM,> 100 µM,,> 100 µM,> 100 µM,> 100 µM,> 100 µM,,,,,,,,,> 100 µM,,
O=C(N/C(=C\c1ccc([N+](=O)[O-])cc1)c1nc2ccc(Cl)cc2[nH]1)c1ccccc1,,> 100 µM,74.6 µM,34.9 µM,,61.3 µM,31.2 µM,54 µM,31.3 µM,,,,,,,,,,,
CC(C)C/C=C/C=C/C(=O)N[C@@H](CC(N)=O)C(=O)N[C@@H]1C(=O)N[C@H](c2ccc(O)cc2)C(=O)N[C@H](CCCN)C(=O)N[C@H]([C@@H](C)O)C(=O)N[C@H](c2ccc(O)cc2)C(=O)N[C@H](c2ccc(O)cc2)C(=O)N[C@H]([C@H](C)O)C(=O)N[C@H](Cc2ccccc2)C(=O)N[C@H](CCCN)C(=O)N[C@H](c2ccc(O[C@H]3O[C@@H](CO)[C@@H](O)[C@@H](O)[C@H]3O[C@@H]3O[C@H](CO)[C@H](O)[C@H](O)[C@@H]3O)cc2)C(=O)N[C@H]([C@H](C)O)C(=O)N[C@H](c2ccc(O)cc2)C(=O)NCC(=O)N[C@H](CC(C)C)C(=O)N[C@H](C)C(=O)N[C@H](c2ccc(O)c(Cl)c2)C(=O)O[C@@H]1C(N)=O (X17-N[X18][dHpg][dOrn][d(aThr)][dHpg][dHpg][dT][dF][dOrn][X19][dT][dHpg]G[dL][dA][X20]; ester 2-C),79.8 µM,55.4 µM,> 100 µM,55 µM,> 100 µM,74.8 µM,> 100 µM,> 100 µM,> 100 µM,23.9 µM,50.6 µM,24.1 µM,29.5 µM,26.2 µM,30.3 µM,31.7 µM,,,38.4 µM,29.4 µM
O=C(O)CCSC(=O)Nc1cccc([N+](=O)[O-])c1,> 100 µM,> 100 µM,> 100 µM,> 100 µM,> 100 µM,> 100 µM,> 100 µM,> 100 µM,> 100 µM,,,,,,,,,,,
ClC1(c2ccccc2)c2ccc(Br)cc2-c2cc(Br)ccc21,,31.3 µM,32.3 µM,31.6 µM,33.2 µM,36.3 µM,33.8 µM,> 100 µM,28.7 µM,,,,,,,,,36.4 µM,,
N#Cc1ccc(-c2nc3ccc(Cl)cc3[nH]2)cc1,> 100 µM,> 100 µM,> 100 µM,> 100 µM,,> 100 µM,> 100 µM,> 100 µM,> 100 µM,,,,,,,,,> 100 µM,,
Cc1cc(O)c(/C=N/c2nc(-c3cccc([N+](=O)[O-])c3)cs2)c(=O)o1,> 100 µM,> 100 µM,> 100 µM,> 100 µM,> 100 µM,> 100 µM,> 100 µM,,> 100 µM,,,,,,,,,> 100 µM,,
COC1CC2C=CC3C4OC2(/C(C)=C/C(C)C(C(C)O)OC1=O)C3C(O)C(C)C4OC(=O)c1ccc[nH]1 (centres undefined),,> 100 µM,> 100 µM,> 100 µM,> 100 µM,> 100 µM,> 100 µM,71.2 µM,> 100 µM,,,,,,,,,,,
